According to PubChem BioAssay (NCI):
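GI50 marks 50% less growth. At the TGI there is no net growth.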

How the values were obtained:
Test in all cases: inhibition of tumour cell growth, NCI panel, 384-well format
[1] = system: 786-0 renal
[2] = system: A498 renal
[3] = system: A549 NSCLC
[4] = system: ACHN renal
[5] = system: BT-549 breast
[6] = system: CAKI-1 renal
[7] = system: CCRF-CEM leukemia
[8] = system: COLO 205 colon
[9] = system: DU-145 prostate
[10] = system: EKVX NSCLC
[11] = system: HCC-2998 colon
[12] = system: HCT-116 colon
[13] = system: HCT-15 colon
[14] = system: HL-60(TB) leukemia
[15] = system: HOP-62 NSCLC
[16] = system: HOP-92 NSCLC
[17] = system: HS 578T breast
[18] = system: HT29 colon
[19] = system: IGROV1 ovarian
[20] = system: K-562 leukemia
[21] = system: KM12 colon
[22] = system: LOX IMVI melanoma
[23] = system: M14 melanoma
[24] = system: MALME-3M melanoma
[25] = system: MDA-MB-231 breast
[26] = system: MDA-MB-435 melanoma
[27] = system: MDA-MB-468 breast
[28] = system: MOLT-4 leukemia
[29] = system: NCI-H226 lung
[30] = system: NCI-H23 lung
[31] = system: NCI-H322M lung
[32] = system: NCI-H460 NSCLC
[33] = system: NCI-H522 lung
[34] = system: NCI/ADR-RES ovarian
[35] = system: OVCAR-3 ovarian
[36] = system: OVCAR-4 ovarian
[37] = system: OVCAR-5 ovarian
[38] = system: OVCAR-8 ovarian
[39] = system: PC-3 prostate
[40] = system: RPMI-8226 leukemia
[41] = system: RXF 393 renal
[42] = system: SF-268 CNS
[43] = system: SF-295 CNS
[44] = system: SF-539 CNS
[45] = system: SK-MEL-2 melanoma
[46] = system: SK-MEL-28 melanoma
[47] = system: SK-MEL-5 melanoma
[48] = system: SK-OV-3 ovarian
[49] = system: SN12C renal
[50] = system: SNB-19 CNS
[51] = system: SNB-75 CNS
[52] = system: SR leukemia
[53] = system: SW-620 colon
[54] = system: T-47D breast
[55] = system: TK-10 renal
[56] = system: U251 glioblastoma
[57] = system: UACC-257 melanoma
[58] = system: UACC-62 melanoma
[59] = system: UO-31 renal

CC(=O)c1ccc2c(c1)c1cc(C(C)=O)ccc1n2CCNC(C)C
GI50 [1]: 228 nM | TGI [1]: 855 nM | GI50 [2]: 182 nM | TGI [2]: 329 nM | GI50 [3]: 189 nM | TGI [3]: 353 nM | GI50 [4]: 101 nM | TGI [4]: 245 nM | GI50 [5]: 348 nM | TGI [5]: 932 nM | GI50 [6]: 150 nM | TGI [6]: 317 nM | GI50 [7]: 148 nM | TGI [7]: 299 nM | GI50 [8]: 164 nM | TGI [8]: 311 nM | GI50 [9]: 344 nM | TGI [9]: 1430 nM | GI50 [10]: 409 nM | TGI [10]: 931 nM | GI50 [11]: 311 nM | TGI [11]: 811 nM | GI50 [12]: 199 nM | TGI [12]: 731 nM | GI50 [13]: 206 nM | TGI [13]: 464 nM | GI50 [14]: 201 nM | TGI [14]: 349 nM | GI50 [15]: 201 nM | TGI [15]: 755 nM | GI50 [16]: 225 nM | TGI [16]: 656 nM | GI50 [17]: 195 nM | TGI [17]: 376 nM | GI50 [18]: 206 nM | TGI [18]: 1030 nM | GI50 [19]: 480 nM | TGI [19]: 15100 nM | GI50 [20]: 178 nM | TGI [20]: 405 nM | GI50 [21]: 286 nM | TGI [21]: 2270 nM | GI50 [22]: 192 nM | TGI [22]: 338 nM | GI50 [23]: 259 nM | TGI [23]: 665 nM | GI50 [24]: 172 nM | TGI [24]: 319 nM | GI50 [25]: 194 nM | TGI [25]: 446 nM | GI50 [26]: 320 nM | TGI [26]: 922 nM | GI50 [27]: 164 nM | TGI [27]: 306 nM | GI50 [28]: 34.6 nM | TGI [28]: 101 nM | GI50 [29]: 153 nM | TGI [29]: 308 nM | GI50 [30]: 193 nM | TGI [30]: 461 nM | GI50 [31]: 234 nM | TGI [31]: 543 nM | GI50 [32]: 164 nM | TGI [32]: 316 nM | GI50 [33]: 152 nM | TGI [33]: 307 nM | GI50 [34]: 204 nM | TGI [34]: 472 nM | GI50 [35]: 273 nM | TGI [35]: 969 nM | GI50 [36]: 244 nM | TGI [36]: 637 nM | GI50 [37]: 433 nM | TGI [37]: 14300 nM | GI50 [38]: 276 nM | TGI [38]: 1320 nM | GI50 [39]: 279 nM | TGI [39]: 782 nM | GI50 [40]: 164 nM | TGI [40]: 303 nM | GI50 [41]: 170 nM | TGI [41]: 529 nM | GI50 [42]: 222 nM | TGI [42]: 618 nM | GI50 [43]: 309 nM | TGI [43]: 1170 nM | GI50 [44]: 228 nM | TGI [44]: 669 nM | GI50 [45]: 263 nM | TGI [45]: 478 nM | GI50 [46]: 207 nM | TGI [46]: 435 nM | GI50 [47]: 178 nM | TGI [47]: 322 nM | GI50 [48]: 300 nM | TGI [48]: 1230 nM | GI50 [49]: 221 nM | TGI [49]: 728 nM | GI50 [50]: 279 nM | TGI [50]: 2650 nM | GI50 [51]: 264 nM | TGI [51]: 743 nM | GI50 [52]: 33.8 nM | TGI [52]: 86.6 nM | GI50 [53]: 207 nM | TGI [53]: 736 nM | GI50 [54]: 258 nM | TGI [54]: 619 nM | GI50 [55]: 472 nM | TGI [55]: 11700 nM | GI50 [56]: 248 nM | TGI [56]: 715 nM | GI50 [57]: 182 nM | TGI [57]: 351 nM | GI50 [58]: 170 nM | TGI [58]: 313 nM | GI50 [59]: 168 nM | TGI [59]: 308 nM
